For orientation: EC50 means the concentration at which the effect is half-maximal. A word on the Cmax: it is the maximum level reached in the sampled fluid or tissue.

EC50 and Cmax data for 14 molecules are collected here from US10654834B2 (Venenum Biodesign, LLC, priority 2016, dated 2020).

Structures are written as SMILES. Like-named read-outs stand apart in the source and are kept apart here. Some results are limits rather than exact numbers.

Data set [1] deals with Mouse STC-1 cells. Nature of the data set: STC-1 GLP-1 assay (GLP-1 secretion). It counts as cell-based. As to conditions: Mouse STC-1 cells, GLP-1 secretion, 2 h; read-out: Mouse STC-1 HTRF GLP-1 Activity (EC50). The procedure:
Compounds of the present invention were evaluated for their ability to induce GLP-1 production in mouse intestinal neuroendocrine tumor cells.
Mouse STC-1 cells were cultured and maintained in high glucose DMEM (Sigma #5796) supplemented with 15% horse serum, 5% Fetal Bovine Serum (FBS), 1%° penicillin/streptomycin, and 2 mM L-alanine L-glutamine (GlutaMax). Two days prior to analysis of GLP-1 secretion cells were harvested using Accutase (Sigma), spun down then resuspended in high glucose DMEM media containing 2 mM L-alanine L-glutamine (GlutaMax), 10% charcoal-dextran stripped FBS, and 50 μg/mL Gentamicin, at a density of 100,000° cells/mL. 100 μL of cell suspension was added to each well of a 96-well Poly-D-Lysine coated culture plate (Sigma; cat #2382493) and was incubated at 37° C. with 5% CO2.
Compounds were initially diluted in 100% DMSO (12-point serial dilution by half logs) in a 96-well plate and then were further diluted 1:500 in Hanks' Balanced Salt Solution (HBSS) containing protease inhibitor cocktail, DPP-IV inhibitor, and 0.1% fatty acid free bovine serum albumin. On the day of the experiment cells were washed once with HBSS. After wash, 100 μL of test compound was added to each well. The plate was incubated at 37° C. with 5% CO2 for 2° h. Supernatants were collected and GLP-1 secretion was measured using the Cisbio™ Active GLP-1 HTRF Assay Kit (CisBio). Briefly, Anti-GLP-1-d2 conjugate and Anti-GLP-1 Terbium Cryptate conjugate stock solutions were prepared as per kit instructions. The two solutions were pre-mixed and 10 μL were transferred to a 384-well low volume plate (Greiner; cat #784075). 10 μL of collected supernatants were added to wells already containing the conjugate solution. The plate was covered and incubated at room temperature overnight. The plate was read on an Envision™ plate reader (PerkinElmer).
In Table 53, EC50 values were obtained from the STC-1 GLP-1 production assay for compounds of the present invention are summarized.
A general note: In TR-FRET formats the signal depends on donor and acceptor labels being close together.

The target in data set [2] is T1, mouse TGR5 receptor (Mus musculus, UniProt Q80SS6).
T1 construct: host or cells: HEK293-EBNA (293 c18, ATCC CRL10852)
T1 sequence (Q80SS6 1-329): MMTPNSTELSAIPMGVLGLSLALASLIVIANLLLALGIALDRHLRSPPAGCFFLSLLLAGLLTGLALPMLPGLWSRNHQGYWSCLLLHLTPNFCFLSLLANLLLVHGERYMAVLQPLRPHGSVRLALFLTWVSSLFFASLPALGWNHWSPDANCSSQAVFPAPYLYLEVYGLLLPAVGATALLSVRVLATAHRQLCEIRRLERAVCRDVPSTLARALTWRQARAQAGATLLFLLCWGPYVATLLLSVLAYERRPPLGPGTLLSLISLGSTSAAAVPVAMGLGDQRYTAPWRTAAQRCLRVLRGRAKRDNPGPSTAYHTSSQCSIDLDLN
Nature of the data set: Mouse TGR5 HTRF cAMP production assay (HEK293-EBNA cells, Cisbio cAMP HiRange kit). It counts as cell-based. Particulars: HEK293-EBNA cells overexpressing mouse TGR5, HTRF cAMP assay. In short, it runs like this:
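HEK293-EBNA cells stably expressing mouse TGR5 (episomal vector) were suspended in serum-free DMEM with 500 μM IBMX and exposed to 12-point half-log compound dilutions for 1 h at room temperature. cAMP was detected by HTRF (d2-cAMP/anti-cAMP cryptate, 1 h, room temperature), giving EC50 from duplicates.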

For data set [3], the target named is T2, human TGR5 receptor (Homo sapiens, UniProt Q8TDU6).
T2 construct: host or cells: CHO-K1 (hTGR5-CHO)
T2 sequence (Q8TDU6 1-330): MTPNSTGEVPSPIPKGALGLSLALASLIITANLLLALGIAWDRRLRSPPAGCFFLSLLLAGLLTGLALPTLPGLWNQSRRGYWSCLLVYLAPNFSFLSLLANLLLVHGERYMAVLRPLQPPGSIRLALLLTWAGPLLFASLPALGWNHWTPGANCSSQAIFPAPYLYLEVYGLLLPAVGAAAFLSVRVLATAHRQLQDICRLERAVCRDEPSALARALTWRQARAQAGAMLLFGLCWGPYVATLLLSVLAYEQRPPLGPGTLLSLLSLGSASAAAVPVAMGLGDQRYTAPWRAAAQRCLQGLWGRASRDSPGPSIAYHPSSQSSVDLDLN
Nature of the data set: Human TGR5 cAMP production assay (hTGR5-CHO cells, DiscoveRx cAMP XS+ kit). It is filed as cell-based. Particulars: luminescent cAMP assay, read-out: Human TGR5 Lum. cAMP Activity (EC50). In short, it runs like this:
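CHO-K1 cells stably expressing hTGR5, in PBS with IBMX and cAMP antibody, treated with half-log compound dilutions for 1 h at room temperature. cAMP measured by enzyme-fragment complementation luminescence after overnight detection; EC50 values reported.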

Data set [4] in a line: Pharmacokinetic profile in mice after oral gavage. It is filed as in vivo, mouse. More on the design: unit: ng/mL. Particulars: fasted male Hilltop mice, 10 mg/kg oral gavage, plasma. The procedure:
Pharmacokinetic Profile in Mice
In this series of studies, the pharmacokinetic profile characteristics of compounds of the present invention were evaluated. The plasma concentration levels of the compounds were monitored in the blood stream (i.e., plasma) after oral gavage using Cmax, and area under the curve (AUC).
8 week old male Hilltop mice were fasted overnight. Animals were randomized into groups (n=9) by body weight. Mice were dosed with 10 mg/kg compound (in 20% PEG400/80% 0.5% carboxymethylcellulose (medium viscosity)+0.25% Tween-80) at a volume of […] through oral gavage. Blood was collected via orbital bleeding at 0, 0.25, 0.5, 1, 2, and 4 h post-dose, with no one mouse having more than 3 blood draws. Blood was collected in EDTA coated tubes. Samples were stored at −20° C. until analysis.
Quantitation of compound levels in plasma was accomplished by LC-MS/MS analysis. Standard curve and quality control samples were prepared in male CD-1 mouse plasma containing EDTA K^2+ as an anticoagulant at final concentrations ranging from 500 to 0.1 ng/mL. The plasma samples, calibration curve standards, and quality control samples were prepared in an identical method in a 96-well deep plate (1 mL) with a quenching solution (1:1 mixed acetonitrile:methanol containing the internal standard Reserpine @ 400 ng/mL). Low volume samples were supplemented with CD-1 mouse plasma. The plate was mixed on multi-tube vortexer for 1 min and centrifuged at 4000 rpm for 30 min at 4° C. (Sorvall® Super T21) before LC-MS/MS analysis. LC conditions were developed and optimized based on each compound as needed. The outlet of the column was coupled to AB Sciex 4000 QTrap Mass Spectrometer (AB Sciex, Brugg Switzerland). Detection was carried out using multiple reaction monitoring mode with positive-ion detection focusing. The pharmacokinetic parameters were derived from the plasma-time data and calculated using the standard non-compartmental method with WinNonlin (Pharsight, Mountain View, Calif.) or PK Solver (Comp. Meth. Prog. Biomed. (2010), 99, 306-314).
Values reported are the mean plasma concentration of three mice. […]

Regarding `N#CCCN1CCN(c2cc(N3CCC[C@H]3C(=O)NCCc3ccc(C(F)(F)F)cc3)nc(C(F)(F)F)n2)CC1` [Compound 10], the concentration for a half-maximal effect (EC50) was 0.1 to 0.999 µM in data set [1], less than 0.1 µM in data set [2] and less than 0.1 µM in data set [3].
Regarding `N#Cc1ccc(CCNC(=O)[C@@H]2CCCN2c2cc(N3CCC(CO)CC3)cc(C(F)(F)F)n2)cc1` [Compound 38], the concentration for a half-maximal effect (EC50) is 0.1 to 0.999 µM in data set [1], less than 0.1 µM in data set [2] and less than 0.1 µM in data set [3].
With `N#Cc1ccc(CCNC(=O)[C@@H]2CCN2c2cc(N3CCC(CCC(=O)O)CC3)nc(C(F)(F)F)n2)cc1` [Compound 227, (S)-3-(1-(6-(2-((4-cyanophenethyl)carbamoyl)azetidin-1-yl)-2-(trifluoromethyl)pyrimidin-4-yl)piperidin-4-yl)propanoic acid], the EC50 is 0.1 to 0.999 µM in data set [1], less than 0.1 µM in data set [2] and less than 0.1 µM in data set [3].
`CN(C)CCC1CCN(c2cc(N3CC[C@H]3C(=O)NCCc3ccc(C#N)cc3)nc(C(F)(F)F)n2)CC1` [Compound 228, (S)-N-(4-cyanophenethyl)-1-(6-(4-(2-(dimethylamino)ethyl)piperidin-1-yl)-2-(trifluoromethyl)pyrimidin-4-yl)azetidine-2-carboxamide]: the EC50 in data set [1] is 0.1 to 0.999 µM; in data set [2], less than 0.1 µM; in data set [3], less than 0.1 µM.
Take `N#CCCN1CCN(c2cc(N3CC[C@H]3C(=O)NCCc3ccc(C#N)cc3)nc(C(F)(F)F)n2)CC1` [Compound 229, (S)-1-(6-(4-(2-cyanoethyl)piperazin-1-yl)-2-(trifluoromethyl)pyrimidin-4-yl)-N-(4-cyanophenethyl)azetidine-2-carboxamide]: the half-maximal effective concentration (EC50) was 0.1 to 0.999 µM in data set [1], less than 0.1 µM in data set [2] and less than 0.1 µM in data set [3].
Turning to `N#CCCC1CCN(c2cc(N3CC[C@H]3C(=O)NCCc3ccc(C#N)cc3)nc(C(F)(F)F)n2)CC1` [Compound 230, (S)-1-(6-(4-(2-cyanoethyl)piperidin-1-yl)-2-(trifluoromethyl)pyrimidin-4-yl)-N-(4-cyanophenethyl)azetidine-2-carboxamide], the half-maximal effective concentration (EC50) in data set [1] was 0.1 to 0.999 µM; in data set [2], less than 0.1 µM; in data set [3] it was less than 0.1 µM.
As for `COc1cc(C(F)(F)F)ccc1CCNC(=O)[C@@H]1CCN1c1cc(N2CCC(CCO)CC2)nc(C(F)(F)F)n1` [Compound 238, (5)-1-(6-(4-(2-hydroxyethyl)piperidin-1-yl)-2-(trifluoromethyl)pyrimidin-4-yl)-N-(2-methoxy-4-(trifluoromethyl)phenethyl)azetidine-2-carboxamide], the results for the concentration giving a half-maximal response (EC50) in data set [1], in data set [2] and in data set [3] were 0.1 to 0.999 µM, less than 0.1 µM and less than 0.1 µM, respectively.
With `COc1cc(C(F)(F)F)ccc1CCNC(=O)[C@@H]1CCN1c1cc(N2CCC(CCCC(=O)O)CC2)nc(C(F)(F)F)n1` [Compound 240, (S)-4-(1-(6-(2-((2-methoxy-4-(trifluoromethyl)phenethyl)carbamoyl)azetidin-1-yl)-2-(trifluoromethyl)pyrimidin-4-yl)piperidin-4-yl)butanoic acid], the 50% effective concentration (EC50) in data set [1], in data set [2] and in data set [3] was less than 0.1 µM in each case.
Turning to `N#Cc1ccc(CCNC(=O)[C@@H]2CCN2c2cc(N3CCC(CCC(=O)NCCS(=O)(=O)O)CC3)nc(C(F)(F)F)n2)cc1` [Compound 262], the EC50 in data set [1] is 0.1 to 0.999 µM; in data set [2], less than 0.1 µM; in data set [3], less than 0.1 µM.
Regarding `COCCN1CCN(c2cc(N3CCC[C@@H](C(=O)NCCc4ccc(C(F)(F)F)cc4)C3)nc(C(F)(F)F)n2)CC1` [Compound 328, (R)-1-(6-(4-(2-methoxyethyl)piperazin-1-yl)-2-(trifluoromethyl)pyrimidin-4-yl)-N-(4-(trifluoromethyl)phenethyl)piperidine-3-carboxamide], the concentration for a half-maximal effect (EC50) is 0.1 to 0.999 µM in data set [1], less than 0.1 µM in data set [2] and less than 0.1 µM in data set [3].
Turning to `CN(C)CCN1CCN(c2cc(N3CCC[C@@H](C(=O)NCCc4ccc(C#N)cc4)C3)nc(C(F)(F)F)n2)CC1` [Compound 333, (R)-N-(4-cyanophenethyl)-1-(6-(4-(2-(dimethylamino)ethyl)piperazin-1-yl)-2-(trifluoromethyl)pyrimidin-4-yl)piperidine-3-carboxamide], the EC50 in data set [1] is 0.1 to 0.999 µM; in data set [2], less than 0.1 µM; in data set [3] it was less than 0.1 µM.
As for `N=C(N)NCCS(=O)(=O)N1CCN(c2cc(N3CCC[C@@H](C(=O)NCCc4ccc(C(F)(F)F)cc4)C3)nc(C(F)(F)F)n2)CC1` [Compound 349, (R)-1-(6-(4-((2-guanidinoethyl)sulfonyl)piperazin-1-yl)-2-(trifluoromethyl)-pyrimidin-4-yl)-N-(4-(trifluoromethyl)phenethyl)piperidine-3-carboxamide], the half-maximal effective concentration (EC50) in data set [2] and in data set [3] was less than 0.1 µM throughout. For the same molecule, the highest concentration (Cmax) in data set [4] (mouse, read-out: Cmax) was 1.7 ng/mL.
In the case of `N#Cc1ccc(CCNC(=O)[C@@H]2CCN2c2cc(N3CCC(CCNS(=O)(=O)NCCC(=O)O)CC3)nc(C(F)(F)F)n2)cc1` [Compound 355], the half-maximal effective concentration (EC50) in data set [2] and in data set [3] was less than 0.1 µM each time. In data set [4], this molecule registered a peak concentration (Cmax) of 48 ng/mL.
Regarding `N#Cc1ccc(CCNC(=O)[C@@H]2CCCN2c2cc(N3CCC(CCNC(=O)NCCOCCOCCOCCC(=O)O)CC3)nc(C(F)(F)F)n2)cc1` [Compound 364, (S)-1-(1-(6-(2-((4-cyanophenethyl)carbamoyl)pyrrolidin-1-yl)-2-(trifluoromethyl)pyrimidin-4-yl)piperidin-4-yl)-4-oxo-8,11,14-trioxa-3,5-diazaheptadecan-17-oic acid], the EC50 in data set [2] and in data set [3] was less than 0.1 µM each time. Also, in data set [4] (mouse, read-out: Cmax), the Cmax came to 8 ng/mL.
